Among the data in US20100105655A1, “NOVEL COMPOUNDS 515” (ASTRAZENECA AB, priority 2008, published 2010) are IC50 values, retold here.

T1 sequence (P08069 31-1367): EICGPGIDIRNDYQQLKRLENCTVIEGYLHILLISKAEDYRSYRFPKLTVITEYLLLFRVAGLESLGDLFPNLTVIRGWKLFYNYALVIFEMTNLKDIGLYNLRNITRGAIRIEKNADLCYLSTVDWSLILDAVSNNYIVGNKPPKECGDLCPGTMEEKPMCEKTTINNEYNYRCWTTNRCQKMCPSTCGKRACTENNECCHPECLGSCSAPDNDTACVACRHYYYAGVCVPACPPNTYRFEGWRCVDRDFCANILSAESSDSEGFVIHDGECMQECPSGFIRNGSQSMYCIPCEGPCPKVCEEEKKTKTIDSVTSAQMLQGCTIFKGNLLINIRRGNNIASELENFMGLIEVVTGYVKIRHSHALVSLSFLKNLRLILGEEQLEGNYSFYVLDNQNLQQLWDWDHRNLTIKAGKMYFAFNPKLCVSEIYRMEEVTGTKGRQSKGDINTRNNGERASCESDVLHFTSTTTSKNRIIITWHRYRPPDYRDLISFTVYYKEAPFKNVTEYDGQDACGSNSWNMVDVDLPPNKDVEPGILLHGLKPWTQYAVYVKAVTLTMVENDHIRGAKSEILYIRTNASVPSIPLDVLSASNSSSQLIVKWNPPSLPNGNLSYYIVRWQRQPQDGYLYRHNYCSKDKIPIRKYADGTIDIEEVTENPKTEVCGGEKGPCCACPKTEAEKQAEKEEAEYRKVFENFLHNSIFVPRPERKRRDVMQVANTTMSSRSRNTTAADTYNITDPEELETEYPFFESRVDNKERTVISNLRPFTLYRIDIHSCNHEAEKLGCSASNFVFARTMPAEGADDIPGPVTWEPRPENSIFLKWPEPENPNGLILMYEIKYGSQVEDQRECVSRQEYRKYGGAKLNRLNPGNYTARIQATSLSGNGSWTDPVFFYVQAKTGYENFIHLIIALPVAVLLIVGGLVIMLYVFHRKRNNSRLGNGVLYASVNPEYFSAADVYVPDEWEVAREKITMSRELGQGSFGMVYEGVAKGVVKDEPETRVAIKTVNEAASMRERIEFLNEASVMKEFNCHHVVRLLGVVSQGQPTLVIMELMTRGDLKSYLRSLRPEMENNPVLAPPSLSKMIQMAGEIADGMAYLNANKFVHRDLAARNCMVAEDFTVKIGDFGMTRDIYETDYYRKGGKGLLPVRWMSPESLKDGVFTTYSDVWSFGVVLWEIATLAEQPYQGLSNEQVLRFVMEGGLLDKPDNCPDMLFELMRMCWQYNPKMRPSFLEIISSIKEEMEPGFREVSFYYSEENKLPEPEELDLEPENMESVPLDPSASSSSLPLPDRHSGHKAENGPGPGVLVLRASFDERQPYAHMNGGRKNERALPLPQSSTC

One test has as its target T1, IGFR kinase (Homo sapiens, UniProt P08069).
T1 construct: purchased Millipore
Nature of the test: Enzyme assay (c), IGFR kinase, Caliper LabChip. The class given is biochemical.
Details: not given
What is called IC50 is the concentration needed to halve the response being measured. Molecule `COc1cc(N2CC3CN(CCCO)CC(C2)O3)ccc1Nc1ncc(Cl)c(-c2cnc3c(F)cccn23)n1` [Example 204, 3-[7-[4-[[5-chloro-4-(8-fluoroimidazo[1,2-a]pyridin-3-yl)pyrimidin-2-yl]amino]-3-methoxy-phenyl]-9-oxa-3,7-diazabicyclo[3.3.1]nonan-3-yl]propan-1-ol] returned a concentration for half-maximal inhibition (IC50) of 19 nM.

Staying with this test, now noted: 30 nM IGFR kinase, 6 uM ATP, 3 uM peptide mix; read-out: IGFR IC50.
On to `COc1cc(N2CCN(C(C)=O)CC2)ccc1Nc1ncc(Cl)c(-c2cnc3cc(CN4CCOCC4)ccn23)n1` [Example 187, 1-[4-[4-[[5-chloro-4-[7-(morpholinomethyl)imidazo[1,2-a]pyridin-3-yl]pyrimidin-2-yl]amino]-3-methoxy-phenyl]piperazin-1-yl]ethanone], for which the IC50 was 43 nM.

In the case of `COc1cc(N2CCN(C(C)=O)CC2)ccc1Nc1ncc(Cl)c(-c2cnc3cc(CN(C)C(C)=O)ccn23)n1` [Example 188, N-[[3-[2-[4-(4-acetylpiperazin-1-yl)-2-methoxy-anilino]-5-chloro-pyrimidin-4-yl]imidazo[1,2-a]pyridin-7-yl]methyl]-N-methyl-acetamide], the IC50 is 120 nM.

With `COc1ccc(N2CC3CNCC(C2)O3)cc1Nc1ncc(Cl)c(-c2cnn3ccccc23)n1` [Example 189, 5-chloro-N-[2-methoxy-5-(9-oxa-3,7-diazabicyclo[3.3.1]nonan-7-yl)phenyl]-4-yrazolo[1,5-a]pyridin-3-yl-pyrimidin-2-amine], the concentration for half-maximal inhibition (IC50) was determined as 95 nM.

As to `COc1cc(CC(CO)CO)ccc1Nc1ncc(Cl)c(-c2cnn3ccccc23)n1` [Example 190, 2-[[4-[(5-chloro-4-pyrazolo[1,5-a]pyridin-3-yl-pyrimidin-2-yl)amino]-3-methoxy-phenyl]methyl]propane-1,3-diol], the IC50 was 2 nM.

Turning to `COc1ccc(N2CC3CNCC(C2)O3)cc1Nc1ncc(Cl)c(-c2cnc3c(F)cccn23)n1` [Example 192, 5-chloro-4-(8-fluoroimidazo[1,2-a]pyridin-3-yl)-N-[2-methoxy-5-(9-oxa-3,7-diazabicyclo[3.3.1]nonan-7-yl)phenyl]pyrimidin-2-amine], the IC50 came out at 530 nM.

In the case of `COc1cc(CC(CO)CO)ccc1Nc1ncc(Cl)c(-c2cnc3c(F)cccn23)n1` [Example 193, 2-[[4-[[5-chloro-4-(8-fluoroimidazo[1,2-a]pyridin-3-yl)pyrimidin-2-yl]amino]-3-methoxy-phenyl]methyl]propane-1,3-diol], the IC50 was 25 nM.

For `COc1cc(N2CCN(CCO)CC2)ccc1Nc1ncc(Cl)c(-c2cnc3c(F)cccn23)n1` [Example 194, 2-[4-[4-[[5-chloro-4-(8-fluoroimidazo[1,2-a]pyridin-3-yl)pyrimidin-2-yl]amino]-3-methoxy-phenyl]piperazin-1-yl]ethanol], the IC50 worked out at 15 nM.

Take `COc1cc(N2CCN(CCO)CC2)ccc1Nc1ncc(F)c(-c2cnc3c(F)cccn23)n1` [Example 195, 2-[4-[4-[[5-fluoro-4-(8-fluoroimidazo[1,2-a]pyridin-3-yl)pyrimidin-2-yl]amino]-3-methoxy-phenyl]piperazin-1-yl]ethanol]: the IC50 came out at 33 nM.

With `COc1cc(C2CCN(C(C)=O)CC2)ccc1Nc1ncc(C)c(-c2cnc3c(F)cccn23)n1` [Example 196, 1-[4-[4-[[4-(8-fluoroimidazo[1,2-a]pyridin-3-yl)-5-methyl-pyrimidin-2-yl]amino]-3-methoxy-phenyl]-1-piperidyl]ethanone], the concentration for half-maximal inhibition (IC50) turned out to be 13 nM.

`COc1cc(C2CCNCC2)ccc1Nc1ncc(C)c(-c2cnc3c(F)cccn23)n1` [Example 197, 4-(8-fluoroimidazo[1,2-a]pyridin-3-yl)-N-[2-methoxy-4-(4-piperidyl)phenyl]-5-methyl-pyrimidin-2-amine]: the IC50 came out at 13 nM.

For `COc1cc(C2CCN(C(=O)CO)CC2)ccc1Nc1ncc(C)c(-c2cnc3c(F)cccn23)n1` [Example 198, 1-[4-[4-[[4-(8-fluoroimidazo[1,2-a]pyridin-3-yl)-5-methyl-pyrimidin-2-yl]amino]-3-methoxy-phenyl]-1-piperidyl]-2-hydroxy-ethanone], the half-inhibitory concentration (IC50) is 26 nM.

For `COc1ccc(N2CCNCC2)cc1Nc1ncc(C)c(-c2cnc3c(F)cccn23)n1` [Example 199, 4-(8-fluoroimidazo[1,2-a]pyridin-3-yl)-N-(2-methoxy-5-piperazin-1-yl-phenyl)-5-methyl-pyrimidin-2-amine], the IC50 turned out to be 110 nM.

As to `COc1cc(C2CCN(C(=O)[C@@H](C)O)CC2)ccc1Nc1ncc(C)c(-c2cnc3c(F)cccn23)n1` [Example 200, (2R)-1-[4-[4-[[4-(8-fluoroimidazo[1,2-a]pyridin-3-yl)-5-methyl-pyrimidin-2-yl]amino]-3-methoxy-phenyl]-1-piperidyl]-2-hydroxy-propan-1-one], the IC50 was 32 nM.

On to `COc1cc(N2CCN(C(C)=O)CC2)ccc1Nc1ncc(C2CC2)c(-c2cnc3c(F)cccn23)n1` [Example 201, 1-[4-[4-[[5-cyclopropyl-4-(8-fluoroimidazo[1,2-a]pyridin-3-yl)pyrimidin-2-yl]amino]-3-methoxy-phenyl]piperazin-1-yl]ethanone], for which the IC50 is 88 nM.

Turning to `COc1cc(C2CCN(C(C)=O)CC2)ccc1Nc1ncc(C2CC2)c(-c2cnc3c(F)cccn23)n1` [Example 202, 1-[4-[4-[[5-cyclopropyl-4-(8-fluoroimidazo[1,2-a]pyridin-3-yl)pyrimidin-2-yl]amino]-3-methoxy-phenyl]-1-piperidyl]ethanone], the IC50 stood at 96 nM.

In the case of `COc1cc(N2CC3CN(C)CC(C2)O3)ccc1Nc1ncc(Cl)c(-c2cnc3c(F)cccn23)n1` [Example 203, 5-chloro-4-(8-fluoroimidazo[1,2-a]pyridin-3-yl)-N-[2-methoxy-4-(7-methyl-9-oxa-3,7-diazabicyclo[3.3.1]nonan-3-yl)phenyl]pyrimidin-2-amine], the IC50 came to 9 nM.

Regarding `COc1cc(N2CC3CN(CC(=O)N(C)C)CC(C2)O3)ccc1Nc1ncc(Cl)c(-c2cnc3c(F)cccn23)n1` [Example 205, 2-[3-[4-[[5-chloro-4-(8-fluoroimidazo[1,2-a]pyridin-3-yl)pyrimidin-2-yl]amino]-3-methoxy-phenyl]-9-oxa-3,7-diazabicyclo[3.3.1]nonan-7-yl]-N,N-dimethyl-acetamide], the half-inhibitory concentration (IC50) is 7 nM.

For `COc1cc(N2CC3CN(CCS(C)(=O)=O)CC(C2)O3)ccc1Nc1ncc(Cl)c(-c2cnc3c(F)cccn23)n1` [Example 207, 5-chloro-4-(8-fluoroimidazo[1,2-a]pyridin-3-yl)-N-[2-methoxy-4-[3-(2-methylsulfonylethyl)-9-oxa-3,7-diazabicyclo[3.3.1]nonan-7-yl]phenyl]pyrimidin-2-amine], the half-maximal inhibitory concentration (IC50) turned out to be 19 nM.

For the molecule `CNCC(=O)N1CC2CN(c3ccc(Nc4ncc(Cl)c(-c5cnc6c(F)cccn56)n4)c(OC)c3)CC(C1)O2` [Example 208, 1-[3-[4-[[5-chloro-4-(8-fluoroimidazo[1,2-a]pyridin-3-yl)pyrimidin-2-yl]amino]-3-methoxy-phenyl]-9-oxa-3,7-diazabicyclo[3.3.1]nonan-7-yl]-2-(methylamino)ethanone], the half-inhibitory concentration (IC50) was 26 nM.

For the molecule `COc1cc(N2CC3CN(C(=O)CN)CC(C2)O3)ccc1Nc1ncc(Cl)c(-c2cnc3c(F)cccn23)n1` [Example 209, 2-amino-1-[7-[4-[[5-chloro-4-(8-fluoroimidazo[1,2-a]pyridin-3-yl)pyrimidin-2-yl]amino]-3-methoxy-phenyl]-9-oxa-3,7-diazabicyclo[3.3.1]nonan-3-yl]ethanone], the IC50 stood at 30 nM.

As for `COc1cc(N2CC3CN(C(=O)[C@@H](N)CO)CC(C2)O3)ccc1Nc1ncc(Cl)c(-c2cnc3c(F)cccn23)n1` [Example 210, (2S)-2-amino-1-[7-[4-[[5-chloro-4-(8-fluoroimidazo[1,2-a]pyridin-3-yl)pyrimidin-2-yl]amino]-3-methoxy-phenyl]-9-oxa-3,7-diazabicyclo[3.3.1]nonan-3-yl]-3-hydroxy-propan-1-one], the half-maximal inhibitory concentration (IC50) is 36 nM.

With `COc1cc(N2CC3CN(C(=O)CN(C)C)CC(C2)O3)ccc1Nc1ncc(Cl)c(-c2cnc3c(F)cccn23)n1` [Example 211, 1-[3-[4-[[5-chloro-4-(8-fluoroimidazo[1,2-a]pyridin-3-yl)pyrimidin-2-yl]amino]-3-methoxy-phenyl]-9-oxa-3,7-diazabicyclo[3.3.1]nonan-7-yl]-2-(dimethylamino)ethanone], the IC50 is 19 nM.

With `COc1cc(N2CC3CN(C(=O)CO)CC(C2)O3)ccc1Nc1ncc(Cl)c(-c2cnc3c(F)cccn23)n1` [Example 212, 1-[7-[4-[[5-chloro-4-(8-fluoroimidazo[1,2-a]pyridin-3-yl)pyrimidin-2-yl]amino]-3-methoxy-phenyl]-9-oxa-3,7-diazabicyclo[3.3.1]nonan-3-yl]-2-hydroxy-ethanone], the concentration for half-maximal inhibition (IC50) was found to be 19 nM.

In the case of `COc1cc(N2CC3CN(C(=O)[C@H](C)O)CC(C2)O3)ccc1Nc1ncc(Cl)c(-c2cnc3c(F)cccn23)n1` [Example 213, (2S)-1-[3-[4-[[5-chloro-4-(8-fluoroimidazo[1,2-a]pyridin-3-yl)pyrimidin-2-yl]amino]-3-methoxy-phenyl]-9-oxa-3,7-diazabicyclo[3.3.1]nonan-7-yl]-2-hydroxy-propan-1-one], the IC50 came to 14 nM.

As for `COc1cc(N2CC3CN(C(=O)[C@@H](C)O)CC(C2)O3)ccc1Nc1ncc(Cl)c(-c2cnc3c(F)cccn23)n1` [Example 214, (2R)-1-[3-[4-[[5-chloro-4-(8-fluoroimidazo[1,2-a]pyridin-3-yl)pyrimidin-2-yl]amino]-3-methoxy-phenyl]-9-oxa-3,7-diazabicyclo[3.3.1]nonan-7-yl]-2-hydroxy-propan-1-one], the IC50 came out at 18 nM.

On to `COc1cc(N2CC3CN(C(C)=O)CC(C2)O3)ccc1Nc1ncc(Cl)c(-c2cnc3c(F)cccn23)n1` [Example 215, 1-[3-[4-[[5-chloro-4-(8-fluoroimidazo[1,2-a]pyridin-3-yl)pyrimidin-2-yl]amino]-3-methoxy-phenyl]-9-oxa-3,7-diazabicyclo[3.3.1]nonan-7-yl]ethanone], for which the IC50 worked out at 9 nM.

Regarding `COc1cc(C2CCN(CC(=O)N(C)C)CC2)ccc1Nc1ncc(Cl)c(-c2cnc3c(F)cccn23)n1` [Example 216, 2-[4-[4-[[5-chloro-4-(8-fluoroimidazo[1,2-a]pyridin-3-yl)pyrimidin-2-yl]amino]-3-methoxy-phenyl]-1-piperidyl]-N,N-dimethyl-acetamide], the IC50 is 2 nM.
